From patent publication US10550107B2, “Process for the preparation of N-[4-[(3-chloro-4-fluoro phenyl) amino]-7-[[(3s-tetrahydro-3-furanyl]oxy]-6-quinazolinyl]-4-(dimethyl amino)-(2E)-2-butenamide (2Z)-2-butenedioate (1:2) and its polymorphs thereof” (MSN LABORATORIES PRIVATE LIMITED, priority 2015, dated 2020) come the findings set out here.

This data set is described as follows: Polymorphic stability of crystalline Form-R. Particulars: at various conditions (not specified). Format: physicochemical.

As to `CN(C)C/C=C/C(=O)Nc1cc2c(Nc3ccc(F)c(Cl)c3)ncnc2cc1O[C@H]1CCOC1.O=C(O)/C=C\C(=O)O` [Form-R, N-[4-[(3-chloro-4-fluorophenyl)amino]-7-[[(3S)-tetrahydro-3-furanyl]oxy]-6-quinazolinyl]-4-(dimethylamino)-(2E)-2-butenamide (2Z)-2-butenedioate (1:2)], the “stability of the crystalline form / conversion to other crystalline forms” value is “stable at various conditions and does not convert to any of the other crystalline forms”.
